Data taken from patent US5266600A (priority 1992, dated 1993).
Converted amounts (≈) assume the structure as drawn. “Also recorded” adds a separate entry of the source. Where two headings read alike, the source gives them in different places.

Tests used:
[1] = test system: HTLV-III (human T cell lymphotropic virus type III); experiment: Inhibition of HTLV-III infection in MT-4 cells (MTT); format: cell-based; details: for EC50: HTLV-III infected MT-4 cells, 5 days, MTT
Procedure: Human T cell lymphotropic virus type III (HTLV-III)/lymphadenopathy-associated virus is the etiologic agent of the acquired immune deficiency syndrome (AIDS) and AIDS-related complex. […] (Nakashima, H. et al., Antimicrobial Agents & Chemotherapy, 30, pp 933-937, 1986).
An HTLV type I-Carrying cell line, MT-4, was maintained in RPMI 1640 medium supplemented with 10% fetal calf serum, 100 IU of penicillin G per ml and 100 μg of streptomycin per ml at 37° C. in a CO2 incubator. HTLV-III8 was obtained from the supernatant of the Molt-4/HTLV-III8 culture. The titer of this virus preparation was 3.0×10^5 PFU/ml. MT-4 cells were infected with 0.01 MOI of HTLV-III8. The infected cells resuspended in fresh medium were mixed with a test sample solution (or medium itself for control) to give 2.5×10^4 cells in a 200 μl volume and incubated at 37° C. for 5 days. The surviving cells were measured by the MTT (3-(4,5-dimethylthiazol-2-yl)-2,5-diphenyltetrazolium bromide) method (R. Pauwels et al., J. Virol Methods, 20, pp 309-321, 1988). [formula]
Fifty percent effective concentration (EC50) was obtained from the inhibition rates.

[2] = test system: MT-4 cells; experiment: Cytotoxicity in virus-uninfected MT-4 cells; format: cell-based; details: human, mt-4 cells
[3] = test system: syncytium formation between HIV gp-120 expressing BSC-1 cells and HeLa-T4 (CD4) cells; experiment: Syncytium formation inhibition assay; format: cell-based; details: for Syncytium inhibitory activity ID50: 3-5 hours, 37° C.
[4] = test system: HIV-1 IIIb; experiment: Acute infection of HIV-1 IIIb in CEM-SS cells; format: cell-based
[5] = Solubility; format: physicochemical
Description: BU-4641V was isolated as a white amorphous powder. […] It gave positive responses to iodine vapor, sulfuric acid and ferric chloride tests, but negative responses to Rydon-Smith, Dragendorff and anthrone-sulfuric acid tests on silica gel TLC plate.

[6] = molecular target: T1, HIV envelope protein gp120 / T cells (UniProt P01730+P04578); experiment: Binding of HIV envelope protein gp120 to T cells
T1 construct: CD4 native on cells

[7] = test system: tubulin bundling in human colon cells; experiment: Immunofluorescence study of tubulin bundling in human colon cells; format: cell-based
[8] = test system: tubulin (3XMTP); experiment: Tubulin polymerization assay using thrice-cycled microtubule protein (3XMTP), spectrophotometric; format: biochemical, calf
Procedure: Briefly, tubulin was purified from calf brain extracts by three cycles of polymerization at 35° C. in the presence of 1 mM GTP+2.5 mM ATP, and depolymerization at 4° C. in PM buffer pH 6.6 (0.1 M PIPES, […]) containing various concentrations of glycerol as described previously (Williams R. C. and J. C. Lee 1982 Methods in Enzymology 85: pp. 376-385). The tubulin polymerization assay was carried out using 3XMTP in PM buffer containing 0.4 M of glycerol in the presence of test-compound. The polymerization was quantitated by Shimadzu spectrophotometer (Model No. UV 2100U) at 350 nm. Effect of compound on the kinetics of tubulin polymerization was followed for 20 minutes using taxol as a positive control and DMSO as a negative control. Compound in PM buffer +0.4 M glycerol (no MTP) served as buffer (negative) controls.

[9] = test system: tubulin (3XMTP); experiment: Electron microscopic observation of microtubule assembly in 3XMTP; format: biochemical, calf; details: 100 μM
[10] = Cytotoxicity in virus-uninfected MT-4 cells; format: cell-based; details: human; virus-uninfected MT-4 cells
[11] = Cytotoxicity in CEM-SS cells; format: cell-based; details: human
[12] = test system: tubulin (3XMTP); details: cited from earlier work

For Dextran sulfate [reference compound], the EC50 [1] was 1.4 µg/mL, the CC50 [2] was > 1000 µg/mL and the “Syncytium inhibitory activity ID50” value [3] was 12.0 µg/mL.

With `CC1=CCC2(C)C(=O)C(O)=C(C(C)CO)C2CC=C(C)C(O)CCC(C)=CCC1` (stereo not drawn) [BU-4641V] the “blocking of acute HIV-1 IIIb infection (in words)” value [4] was “only partially blocks the acute infection of HIV-1 IIIb”, the IC50 ([4]; acute infection of HIV-1 IIIb) was 10 µM and the solubility [5] was “soluble in dimethyl sulfoxide, methanol, methylene chloride, ethyl acetate and alkaline water (such as 0.1 N NaOH); also recorded: insoluble in hexane and water”. For the same compound, the “binding of HIV envelope protein gp120 to T cells” value [6] was “does not affect the binding of HIV envelope protein gp120 to T cells”, the “tubulin bundling around nuclei (in words)” value [7] was “induces tubulin bundling around nuclei” and the EC50 [1] was 0.78 µg/mL (≈ 1.94 µM). For the same compound, the “activity against HTLV-III (in words)” value ([1]; compared with dextran sulfate) was “more active than dextran sulfate against HTLV-III”, the “promotion of tubulin polymerization (in words)” value [8] was “promotes tubulin polymerization in a dose dependent manner; also recorded: reversibly stimulates polymerization of purified tubulin protein; also recorded: promote tubulin polymerization” and the “initial rate of tubulin polymerization (in words)” value ([8]; compared to taxol) was “slower initial rate”. For the same compound, the “reversal of tubulin polymerization by CaCl2 (in words)” value ([8]; treatment with CaCl2) was “can be reversed by treatment with CaCl2”, the “microtubule assembly by electron microscopy (in words)” value [9] was “confirmed by electron microscopic observation of microtubule assembly” and the CC50 [10] was 37.8 µg/mL (≈ 93.9 µM). The “Syncytium inhibitory activity ID50” value [3] was 0.46 µg/mL, the “syncytium inhibitory activity (in words)” value ([3]; compared with dextran sulfate) was “more potent syncytium inhibitory activity; also recorded: stronger syncytium inhibitory property than that of dextran sulfate” and the CC50 [11] was 84 µM.

For `Nc1nc2c(ncn2[C@@H]2O[C@H](COP(=O)(O)OP(=O)(O)OP(=O)(O)O)[C@@H](O)[C@H]2O)c(=O)[nH]1` [GTP], the “promotion of tubulin polymerization (in words), known” value ([12]; GTP) is listed as “known to reversibly promote tubulin polymerization; also recorded: only active on tubulin in the presence of microtubule associated proteins (MAPS)”.

For `CC(=O)O[C@H]1C(=O)[C@@]2(C)[C@H]([C@H](OC(=O)c3ccccc3)[C@]3(O)C[C@H](OC(=O)[C@H](O)[C@@H](NC(=O)c4ccccc4)c4ccccc4)C(C)=C1C3(C)C)[C@]1(OC(C)=O)CO[C@@H]1C[C@@H]2O` [Taxol, reference compound], the “promotion of tubulin polymerization (in words), known” value ([12]; taxol) is given as “promote tubulin polymerization” and the “tubulin bundling around nuclei (in words)” value [7] is given as “induces tubulin bundling around nuclei”.
